Test results published in ChEMBL document CHEMBL6134901 (J Med Chem, 2025).

Tested on: Clostridioides difficile
Assay: Antibacterial activity against Clostridium difficile ATTC43255 assessed as spore germination inhibition at 45 uM incubated for 60 mins by spectrometry relative to control
Type: functional
Conditions: ATTC43255, 1 h

SMILES | inhibition at 45 µM
O=[N+]([O-])c1c[nH]c(-c2nc(-c3ccc(OC4CCCC4)cc3)no2)n1 | < 10%
Oc1ccc(-c2nc(-c3ccc(Oc4ccc(C(F)(F)F)cc4)nc3)no2)cc1 | < 10%
O=[N+]([O-])c1cc(-c2nc(-c3ccc(Oc4ccc(C(F)(F)F)cc4)cc3)no2)cnc1O | < 10%
NCc1ccc(-c2nc(-c3ccc(O[C@@H]4CCNC4)cc3)no2)cc1 | < 10%
CC(C)(C)OC(=O)N1CCC(Nc2c[nH]nc2-c2nc(-c3ccc(Oc4ccc(C(F)(F)F)cc4)cc3)no2)CC1 | < 10%
Cc1c(Cl)c(C)[n+]([O-])c(Cl)c1-c1noc(-c2cc(O)c(O)c([N+](=O)[O-])c2)n1 [OPICAPONE] | < 10%
Oc1ccc(-c2nc(-c3ccc(OC4CC4)cc3)no2)cc1 | < 10%
CNCc1ccc(-c2nc(-c3ccc(OC4CCCC4)cc3)no2)cc1 | 37%
COc1ccc(-c2noc(-c3ccc(CN)cc3)n2)cc1 | < 10%
COc1ccc(-c2nc(-c3ccc(Oc4ccc(C(F)(F)F)cc4)cc3)no2)cc1OC | < 10%
Oc1ccc(-c2nc(-c3ccc(OC4CCOC4)cc3)no2)cc1 (centres undefined) | < 10%
CCC(C)Nc1c[nH]nc1-c1nc(-c2ccc(Oc3ccc(C(F)(F)F)cc3)cc2)no1 (centres undefined) | < 10%
Oc1ccc(-c2nc(N3CCN(c4cccc(Cl)c4)CC3)no2)cc1 | < 10%
NCc1ccc(-c2nc(-c3ccc(Oc4ccc(F)c(F)c4)cc3)no2)cc1 | 44%
CC(C)Cc1ccc(-c2nc(-c3ccc(CN4CC(C(=O)O)C4)cc3)no2)cc1 | < 10%
O=C(Nc1c[nH]nc1-c1nc(-c2ccc(Oc3ccc(C(F)(F)F)cc3)cc2)no1)c1ccccc1 | < 10%
FC(F)(F)c1ccc(Oc2ccc(-c3noc(-c4c[nH]cn4)n3)cc2)cc1 | < 10%
C#CCOc1ccc(-c2noc(-c3ccc(O)cc3)n2)cc1 | < 10%
FC(F)(F)c1ccc(Oc2ccc(-c3noc(-c4n[nH]cc4I)n3)cc2)cc1 | < 10%
O=C1C[C@@H](c2nc(-c3ccc(Oc4ccc(C(F)(F)F)cc4)cc3)no2)CN1 | < 10%

SMILES | inhibition at 45 µM
CN1CCN(c2ccc(-c3noc(-c4ccc(O)cc4)n3)cc2)CC1 | < 10%
NCc1ccc(-c2nc(-c3ccnc(-c4ccc(C(F)(F)F)cc4)c3)no2)cc1 | 71%
CCOc1ccc(-c2noc(-c3ccc(O)cc3)n2)cc1 | < 10%
CCCCOc1ccc(-c2noc(-c3ccc(O)cc3)n2)cc1 | < 10%
CC(C)Oc1ncc(-c2nc(-c3cccc4c3ccn4CCCC(=O)O)no2)cc1Cl [GSK-2018682] | < 10%
O=C(O)c1cccc(-c2noc(-c3ccccc3F)n2)c1 | < 10%
N[C@H]1CC[C@H](Oc2ccc(-c3noc(-c4ccc(O)cc4)n3)cc2)CC1 | < 10%
NCc1ccc(-c2nc(-c3ccc(OC4CCCC4)cc3)no2)cc1 | 41%
Nc1ccc(-c2nc(-c3ccc(Oc4ccc(C(F)(F)F)cc4)cc3)no2)cc1F | < 10%
Oc1ccc(-c2nc(-c3ccc(Oc4cccc(I)c4)cc3)no2)cc1 | 37%
Oc1ccc(-c2nc(-c3ccc(Oc4ccc(C(F)(F)F)cc4)cc3)no2)cc1 | 14%
CCCCOc1ccc(-c2noc(-c3ccc(CN)cc3)n2)cc1 | 32%
O=[N+]([O-])c1ccc(-c2nc(-c3ccc(OC4CCCC4)cc3)no2)cc1 | < 10%
Nc1cc(-c2nc(-c3ccc(Oc4ccc(C(F)(F)F)cc4)cc3)no2)cnc1O | < 10%
Oc1ccc(-c2nc(-c3ccc(OC(F)(F)F)cc3)no2)cc1 | < 10%
O=[N+]([O-])c1c[nH]c(-c2nc(-c3ccc(Oc4ccc(C(F)(F)F)cc4)cc3)no2)c1 | < 10%
NCc1ccc(-c2nc(-c3ccc(Oc4ccc(C(F)(F)F)cc4)cc3)no2)cc1 | 41%
Oc1ccc(-c2nc(-c3ccc4oc5ccccc5c4c3)no2)cc1 | < 10%
NCc1ccc(-c2nc(-c3ccc(OC4CCC4)cc3)no2)cc1 | 24%
